From patent US12070502B2, “Process for reducing subvisible particles in a pharmaceutical formulation” (Regeneron Pharmaceuticals, Inc., priority 2014, dated 2024)

Key:
[1] = test system: polysorbate degrading activity; assay: Reduction of polysorbate 20 degradation by lipase inhibitors; format: biochemical, CHO cell; settings: relative to control without inhibitor
Description: Polysorbate degradation activity was followed during HIC purification of an exemplar antibody produced in CHO cell culture. Partially purified CHO cell extract was applied to HIC (phenyl-sepharose). The flow-through, which contained almost all of the antibody, was collected and analyzed for polysorbate degradation activity. […] The HIC bound fraction was stripped from the HIC media and subsequently subjected to 100 kDa cut-off ultrafiltration/diafiltration. The unfiltered stripped fraction contained 9.9% polysorbate degradation activity, the filter permeate contained 1.3% polysorbate degradation activity and 5% antibody yield, and the filter retentate contained 7.4% polysorbate degradation activity and 95% antibody yield.
Whether the polysorbate degrading activity is a lipase was tested by combining a lipase inhibitor with the polysorbate degrading activity fraction spiked with polysorbate 20. Table 12 presents the data showing a reduction of polysorbate degrading activity due to lipase inhibitor relative to the control (antibody with associated polysorbate degrading activity plus polysorbate 20 without lipase inhibitor).

[2] = Stability of polysorbate 20 / polysorbate 80 esters in 150 mg/mL antibody (mAb1) formulation by mass spectroscopy; settings: for Percent Ester Degradation: 150 mg/mL antibody (mAb1) formulation; for percent remaining esters, Diester / percent remaining esters, Monoester: 150 mg/mL mAb1, 0.02% detergent, no HIC (process 3)
Procedure: The stability of polysorbate 20 and polysorbate 80 in the 150 mg/mL antibody (mAb1) formulation containing 0.02% non-ionic detergent (polysorbate) prepared without HIC [process 3, see below and Table 8]) were compared, under the hypothesis that degradation of the fatty acid ester promotes protein instability and consequent SVP formation. The relative amounts of remaining esters (mono- and di-esters) were determined by mass spectroscopy.
The rates of degradation of polysorbate 20 and polysorbate 80 formulated with 150 mg/mL antibody (mAb1) (as described above for Table 5) were determined under identical conditions using mass spectroscopy to measure relative amounts of free fatty acids and fatty acid esters. Percent ester degradation was determined using the following formula:
[formula] wherein T0=time zero, T1=time at experimental condition (i.e., 2 months at 45° C.; 6 months at 5° C.), and POE=polyoxyethylene. […]
The time point samples were analyzed using an anion exchange column (Oasis MAX column, 30 μm, 2.1 mm×20 mm; Waters Corporation, Milford, Mass.) followed at t=5 minutes with reverse phase chromatography (ACQUITY UPLC® BEH 130 C4 column, 1.7 μm, 2.1 mm×50 mm; Waters Corporation, Milford, Mass.). The reverse phase output was connected to a mass spectrometer (Thermo Q-Exactive mass spectrometer; Thermo Fisher Scientific, Inc., Wilmington, Del.). The chromatographic conditions are described in Table 11.
The system was equilibrated with 99% mobile phase A (0.1% formic acid in water) at a flow rate of 0.1 mL/minute for 40 minutes prior to first injection. Water was used as a blank injection. The mass spectrometer parameters were as follows: mass range 150-2000 m/z; heater temperature at 250° C.; voltage 3.8 kv; sheath gas 40; auxiliary gas 10; capillary temperature 350° C.; and S-lens 50.

Row | Molecule | Percent Reduction in Polysorbate 20 Degradation ([1]; 0.001 mM lipase inhibitor) [%] | Percent Reduction in Polysorbate 20 Degradation ([1]; 0.01 mM lipase inhibitor) [%] | Percent Reduction in Polysorbate 20 Degradation ([1]; 0.1 mM lipase inhibitor) [%] | Percent Ester Degradation ([2]; 2 months at 45° C.) [%] | percent remaining esters, Diester ([2]; 2 months at 45° C.) [%] | percent remaining esters, Monoester ([2]; 2 months at 45° C.) [%] | Percent Ester Degradation ([2]; 6 months at 5° C.) [%] | percent remaining esters, Diester ([2]; 6 months at 5° C.) [%] | percent remaining esters, Monoester ([2]; 6 months at 5° C.) [%] | Percent Ester Degradation ([2]; Time zero) [%] | percent remaining esters, Diester ([2]; Time zero) [%] | percent remaining esters, Monoester ([2]; Time zero) [%]
1 | CCCCOc1ccccc1B(O)O [2-Butoxyphenyl boronic acid, 2-butoxyphenylboronic acid] | 0 | 28 | 0 |  |  |  |  |  |  |  |  | 
2 | CCCCCCCCCCC[C@@H](C[C@@H]1OC(=O)[C@H]1CCCCCC)OC(=O)[C@H](CC(C)C)NC=O [Orlistat, orlistat] | 0 | 27.8 | 67 |  |  |  |  |  |  |  |  | 
3 | O=C(Nc1cccc(-c2ccccc2)c1)OC1CCCCC1 [URB602, [1-1′-biphenyl]-3-tl-carbamicacid cyclohexyl ester] | 0 | 20 | 0 |  |  |  |  |  |  |  |  | 
4 | diethylumbelliferyl phosphate | 48 | 100 | >95 |  |  |  |  |  |  |  |  | 
5 | polysorbate 20 [PS20] |  |  |  | 63 | 10 | 30 | 22 | 30 | 60 | 0 | 100 | 100
